Consider one compound from article PMC11239005, “Preclinical studies of RA475, a guanidine-substituted spirocyclic candidate RPN13/ADRM1 inhibitor for treatment of ovarian cancer” (PLOS ONE, 2024).

SMILES strings stand for the structures. Where only a bound is given, the exact number is not on record here.

A short description of data set [1]: Stability in human liver microsomes. It counts as in vitro ADME. As to conditions: with or without NADPH, over 1 h. Here is the method: Human and mouse liver microsomes and NADPH regenerating system solutions were purchased from Corning Life Sciences (Tewsbury, MA). Human and mouse K2EDTA-treated plasma was purchased from BioIVT (Westbury, NY). Metabolic studies in liver microsomes (0.125 mg/mL) were conducted in 1x PBS (pH 7.4), NADPH-generating system, and 10 μM RA475 in a final volume of 250 μL. An incubation mixture with or without NADPH-generating system, as well as a neat solution prepared without microsomes and NADPH-generating system was used. RA475 was added at the same concentration level into human and mouse EDTA plasma. All reactions were initiated with the addition of RA475. Incubations were performed in glass tubes maintained at 37°C in a shaker bath. At 0, 30, and 60 min, 10 μL samples were withdrawn from the reaction mixture, and 0.5 mL of acetonitrile containing internal standard was added to each. Samples were vortex-mixed and subjected to centrifugation for 5 min at 1430 x g. A 10 μL aliquot of the supernatant was injected onto the LC-MS/MS instrument for qualitative analysis using a temperature-controlled autosampling device operating at 5°C (See Pharmacokinetic section).
For orientation: Liver microsomes are vesicles of endoplasmic reticulum, rich in cytochrome P450 enzymes.

The test system of data set [2] is 4UbFL in 4T1 cells. In words: 4UbFL reporter assay, 4T1. It counts as cell-based. As to conditions: 4T1 stably expressing 4UbFL, 4 h. The protocol: (§1) Sub-confluent cultures of cells were transfected with 4UbFL plasmid using TransIT 2020 reagent (Mirus Bio). Cells were seeded at 10,000 cells/well in 96-well plates 48 h post transfection, and incubated with compounds or vehicle (DMSO) at the doses and for the times indicated. Luciferase activity in cell lysate was determined with a luciferase assay kit (Promega) according to the manufacturer’s instructions. Bioluminescence was measured using a Glomax Multidetection system (Promega).
(§2) Fig 3 Impact of RA475 on proteasome function. […] Actin was used as loading control. […] After a 4 h incubation, the cells were lysed and the luciferase activity in each cell lysate was determined with a luciferase assay kit (Promega) according to the manufacturer’s instructions. Bioluminescence was measured by using a luminometer (Glomax Multidetection system, Promega) E) A patch was shaved of hair on one leg of CD-1 mice, and 10 μg 4UbFL plasmid in 20 μL of PBS was injected into the quadriceps femoralis muscle followed immediately by injection of the 2 Needle Array to 5 mm depth encompassing the injection site and square wave electroporation (ElectroSquarePorator 833, BTX-2 Needle array 5mm gap, Harvard apparatus) delivered as eight pulses at 106V for 20 ms with 200 ms intervals. […] Equally sized areas were analyzed using Living Image 2.20 software. […]
In general terms: A reporter such as luciferase makes a cellular process visible.

The test system of data set [3] is 4UbFL in HCC1806 cells. Briefly: 4UbFL reporter assay, HCC1806. Type of data set: cell-based. As to conditions: HCC1806 stably expressing 4UbFL, 4 h. The protocol: as §1, §2

As to `Cl.Cl.N#Cc1ccc(/C=C2/C(=O)/C(=C/c3ccc(C#N)cc3)C23CCN(C(=N)N)CC3)cc1` [RA475, 1,3-bis((E)-4-cyanobenzylidene)-2-oxo-7-azaspiro[3.5]nonane-7-carboximidamide dihydrochloride], the “degradation in liver microsomes” value in data set [1] is listed as less than 10%. Further, the 4UbFL bioluminescence signal entry in data set [2] and in data set [3] was “dose dependent increases in bioluminescence signal” each time.
